Converted amounts (≈) assume the structure as drawn.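 Where inhibition never reached the appropriate level, the endpoint shown equals the highest concentration tested. Otherwise, values were interpolated linearly from a five-concentration, 48-hour dose response in 96-well plates. Here, GI50 denotes the concentration required for 50% inhibition of growth. TGI is the concentration that stops growth completely.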
Assays:
Test in all cases: inhibition of tumour cell growth, NCI panel, 48 h
K-562 leukemia = tested on: K-562 leukemia
T-47D breast = tested on: T-47D breast
MDA-N = tested on: MDA-N
NCI-H522 lung = tested on: NCI-H522 lung
HOP-92 NSCLC = tested on: HOP-92 NSCLC
OVCAR-4 ovarian = tested on: OVCAR-4 ovarian
HL-60(TB) leukemia = tested on: HL-60(TB) leukemia
DU-145 prostate = tested on: DU-145 prostate
EKVX NSCLC = tested on: EKVX NSCLC
OVCAR-8 ovarian = tested on: OVCAR-8 ovarian

SMILES | TGI (K-562 leukemia) [µM] | TGI (T-47D breast) [µM] | TGI (MDA-N) [µM] | TGI (NCI-H522 lung) [µM] | TGI (HOP-92 NSCLC) [µM] | TGI (OVCAR-4 ovarian) [µM] | TGI (HL-60(TB) leukemia) | TGI (DU-145 prostate) [µM] | TGI (EKVX NSCLC) [µM] | GI50 (K-562 leukemia) | GI50 (NCI-H522 lung) | GI50 (HOP-92 NSCLC) | GI50 (OVCAR-4 ovarian) | GI50 (HL-60(TB) leukemia) | GI50 (DU-145 prostate) | GI50 (EKVX NSCLC) | GI50 (OVCAR-8 ovarian) | TGI (OVCAR-8 ovarian) [µM] | GI50 (T-47D breast) [µg/mL]
COc1ccc(/C=C2\C[C@H]3[C@@H]4CC=C5C[C@@H](O)CC[C@]5(C)[C@H]4CC[C@]3(C)\C2=N\O)cc1 | 45.9 | 4.68 | > 100 | 50 | > 100 | > 100 | 24.8 µM | 71.5 | 8.78 |  |  |  |  |  |  |  |  |  | 
COC(=O)C(C)NP(=O)(OCc1cccc(Cn2cnc3c(N)ncnc32)c1)Oc1ccccc1 (centres undefined) | > 100 |  |  | > 100 | > 100 | > 100 | > 100 µM | > 100 | > 100 | > 100 µM | 36 µM | 54.1 µM | > 100 µM | 46.8 µM | > 100 µM | > 100 µM | > 100 µM | > 100 | 
CCN(CC)c1ccc(Cl)c2c1C(O)(C(C)C)C2(C)C (centres undefined) | 43.9 |  |  | 29.9 |  | 33.3 | 38.8 µM |  |  |  |  |  |  |  |  |  |  | 33.4 | 
C(=C\c1cc[n+](CCc2ccccc2)cc1)/c1ccccc1 | 63.6 | 71.7 |  | 45.4 | > 100 | 50.9 |  | > 100 | > 100 |  |  |  |  |  |  |  |  | 19.5 | 
Cc1nn(C(=O)Cc2ccccc2)c2c1C(c1ccc(/C=C/c3ccccc3)cc1)SC(N)=N2 (centres undefined) | > 100 | > 100 | > 100 | > 100 |  |  | > 100 µM | > 100 | > 100 |  |  |  |  |  |  |  |  | > 100 | 
COC(=O)c1sc(=S)sc1SCc1cccc(CSc2sc(=S)sc2C(=O)OC)c1 | > 100 | > 100 | > 100 | > 100 | 71.2 | > 100 |  | > 100 | > 100 |  |  |  |  |  |  |  |  | > 100 | 
CC(=O)Nc1ccc2c(c1)C(=O)c1ccccc1-2 | > 100 |  |  | > 100 |  |  | > 100 µM |  | > 100 |  |  |  |  |  |  |  |  | > 100 | 
N#CCC(=O)N/N=C\C(O)C(O)C(O)C(O)CO (centres undefined) | > 100 | > 100 | > 100 | > 100 |  |  | > 100 µM | > 100 |  |  |  |  |  |  |  |  |  | > 100 | 
Cc1csc(=Nc2ccccc2)n1CCC(O)(P(=O)(O)O)P(=O)(O)O |  |  | > 100 | > 100 |  |  |  | > 100 | > 100 |  |  |  |  |  |  |  |  | > 100 | 
CC(=O)n1c2ccc(Br)cc2c2nc3ccccc3nc21 | > 100 |  | > 100 | > 100 | > 100 | > 100 | > 100 µM | > 100 | > 100 |  |  |  |  |  |  |  |  | > 100 | 
CC(C)(C)OC(=O)CC(NC(=O)OCc1ccccc1)NC(=O)OC(C)(C)C (centres undefined) |  |  |  |  |  |  | 50.7 µg/mL |  |  | 38.2 µg/mL | 32.9 µg/mL | 69.2 µg/mL | 78.9 µg/mL | 20.8 µg/mL | 72.3 µg/mL | 38.8 µg/mL | 57.5 µg/mL |  | 26 (≈ 65.9 µM)
O=c1c2sc3ccccc3sc=2c(=O)c2c(Cl)c(Cl)c(Cl)c(Cl)c12 | > 100 | > 100 | > 100 | > 100 |  | > 100 |  | > 100 | > 100 |  |  |  |  |  |  |  |  | > 100 | 

Source: PubChem BioAssay (NCI)
